Consider 3 compounds from ChEMBL document CHEMBL6127158, “Novel Aminopyrazole Inhibitors of PDE11A for the Treatment of Alzheimer's Disease and Other Types of Dementia” (ACS Med Chem Lett, 2024).

Activity calls are given as the source filed them. The calls are words filed in the database; no cut-off is given here.

The target in the experiment is Dual 3',5'-cyclic-AMP and -GMP phosphodiesterase 11A (Homo sapiens) (UniProt Q9HCR9). The experiment in a line: Inhibition of recombinant N-terminal GST-tagged human PDE11A4 (1 to 943 residues) expressed in Sf9 cells at 500 nM using cGMP and cAMP as substrates by Ba(OH)2 precipitation method relative to control.
Dual 3',5'-cyclic-AMP and -GMP phosphodiesterase 11A (Homo sapiens), sequence (Q9HCR9 whole entry, looked up, the tested form may be a part): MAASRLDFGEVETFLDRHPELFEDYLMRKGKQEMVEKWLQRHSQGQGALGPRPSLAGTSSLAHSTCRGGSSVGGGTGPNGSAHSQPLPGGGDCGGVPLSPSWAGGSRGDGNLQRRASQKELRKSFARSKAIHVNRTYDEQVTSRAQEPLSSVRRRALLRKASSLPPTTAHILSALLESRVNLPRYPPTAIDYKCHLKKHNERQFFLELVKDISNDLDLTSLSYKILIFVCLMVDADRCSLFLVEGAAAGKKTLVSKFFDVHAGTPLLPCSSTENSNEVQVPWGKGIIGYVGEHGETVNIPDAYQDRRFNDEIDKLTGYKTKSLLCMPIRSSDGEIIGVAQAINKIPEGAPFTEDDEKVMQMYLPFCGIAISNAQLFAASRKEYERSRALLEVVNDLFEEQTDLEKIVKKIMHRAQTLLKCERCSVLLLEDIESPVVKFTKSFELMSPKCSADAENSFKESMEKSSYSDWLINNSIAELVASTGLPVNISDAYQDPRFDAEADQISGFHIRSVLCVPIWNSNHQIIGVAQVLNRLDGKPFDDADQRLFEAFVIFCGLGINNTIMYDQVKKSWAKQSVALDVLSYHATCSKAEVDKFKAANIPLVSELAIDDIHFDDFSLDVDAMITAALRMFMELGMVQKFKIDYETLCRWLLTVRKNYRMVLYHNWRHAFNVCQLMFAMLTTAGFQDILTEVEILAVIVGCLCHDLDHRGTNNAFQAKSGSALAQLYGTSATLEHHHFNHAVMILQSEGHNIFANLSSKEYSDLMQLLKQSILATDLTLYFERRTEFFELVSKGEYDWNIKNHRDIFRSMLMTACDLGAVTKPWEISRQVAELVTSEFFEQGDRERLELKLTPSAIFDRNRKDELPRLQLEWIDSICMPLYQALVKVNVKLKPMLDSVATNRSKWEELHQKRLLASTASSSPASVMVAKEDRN

As usually defined, the inhibition is the change of the read-out against control, counted positive when it falls. Consider `Cc1nn(-c2ccccc2)c2nc(-c3cccs3)cc(C(=O)N3CCCC3)c12`, for which the inhibition is 1%.

On to `CCN(CC)C(=O)c1cc(-c2ccnn2C)nc2c1c(C)nn2-c1ccc(Cl)c(F)c1`, for which the inhibition was 51%.

Turning to `CCN(CC)C(=O)c1ccnc2c1c(C)nn2-c1ccccc1`, the inhibition entry is “inactive”.
